Source: patent US12310970B2, “Compounds and methods for treating or preventing anterior segment ocular disorders and/or retinal degenerations” (YALE UNIVERSITY, priority 2018, dated 2025)
Structures can show the parent of a compound that is named as a salt.

What was measured:
Human ARPE-19 cells [1] = assay: Light microscopy of cell morphology after TBHP challenge; assay type: cell-based
Method: FIG. 1B depicts cells alone (control). FIG. 1C depicts cells treated with 300 μM TBHP. FIG. 1D depicts cells treated with 0.9 μM of ciclopirox olamine.
FIG. 8B depicts cells alone (control). FIG. 8C depicts cells treated with 300 μM TBHP. FIG. 8D depicts cells treated with 0.6 μM compound 414.
Human ARPE-19 cells morphology was examined using phase contrast on a Zeiss 510 NLO confocal laser scanning microscope with a Plan-Apochromatic 20×0.8 DIC objective.

[2] = tested on: corneal endothelial cells; assay: TBHP-induced cell death in corneal endothelial cells; assay type: cell-based, cow; settings: corneal endothelial cells (FIG. 18); 0.9 μM 24 h, then 300 μM TBHP 24 h
Method: Immortalized cow corneal endothelial cells (CRL-2048) obtained from the American Type Culture Collection (ATCC, Manassas, VA, USA) were cultured in Dulbecco's modified Eagle's medium (DMEM; Thermo Fisher Scientific, Waltham, MA) containing 10% fetal bovine serum (FBS), 100 IU/mL penicillin, 100 μg/mL streptomycin, 100 μg/mL gentamicin, and 2.5 μg/mL amphotericin B (Thermo Fisher Scientific). Human ARPE-19 cells were plated in 96-well plates for 24 hours in DMEM supplemented with FBS and antibiotics. ARPE-19 cells were preincubated with either ciclopirox olamine (Sigma), compound 414 (Chemical Diversity, San Diego, CA), compound 434 (Chemical Diversity) or no compound for 24 hours and then exposed to varying concentrations of tert-butyl hydroperoxide (TBHP; Sigma-Aldrich, St. Louis, MO) the next day for 24 hours. Cell viability was measured the following day by […] cell viability assay (Promega, Madison, WI) using a BioTek FLX800TM fluorescence reader (BioTek Winooski, VT). […] Protective effect of 0.9 μMciclopirox olamine on lens epithelial cells exposed to 300 μMTBHP.

Human ARPE-19 cells [3] = assay: Cell viability on nitrite-modified extracellular matrix; assay type: cell-based; settings: 0.9 μM, 24 h
Method: To prepare the RPE ECM nitrite-treated plates, ARPE-19 cells were grown on 24-well Transwell permeable supports (Corning, Tewksbury, MA, USA) in 12-well plates for 6 to 8 weeks to allow for ECM formation. ARPE-19 cells were removed by the addition of 20 mM ammonium hydroxide buffer for 20 minutes, and the ECM was washed three times with phosphate-buffered saline (PBS). Phosphate-buffered saline was removed from the RPE-derived ECM (RPE-ECM), which was then allowed to dry. The RPE-derived ECM plates were either used immediately after drying, or stored at −20° C. for future use. RPE-derived ECM was processed further to create four experimental plating surfaces (untreated, nitrite modified, nitrite modified followed by washing, or nitrite modified followed by washing and coating with a mixture of ECM ligands).
Nitrite-modified ECM was prepared by adding 100 mM sodium nitrite to the ECM and incubating at 37° C. for 7 days. Plates were then washed at least four times with PBS and further incubated with PBS for 4 hours. Following this, the plates were washed at least two additional times to completely remove the nitrite.
Reactive nitrogen species (RNS) act together with reactive oxygen species (ROS) to damage cells, causing nitrosative stress. […]

[4] = tested on: 661 W photoreceptor-derived cells; assay: TBHP-induced oxidative stress in 661 W photoreceptor-derived cells; assay type: cell-based, Murine; settings: 24 h preincubation, then 300 μM TBHP 24 h, n=4
Method: As shown in FIGS. 20A-20B, compounds 414 and 434 protect 661 W photoreceptor-derived cells from tert-butyl […] oxidative stress. Retinal photoreceptor-derived cell line (661 W) were cultured until confluent in Dulbecco's modified eagle medium (DMEM) with 10% fetal bovine serum (FBS). Murine photoreceptor-derived cells were preincubated with 3 μMciclopirox olamine for 24 hours and then exposed to 300 μM tert-butyl hydroperoxide (TBHP) to induce cell death for 24 hours. […] Bar: standard error, n=4. student t-test was performed for statistical analysis.

HUVEC = assay: TBHP-induced cell death in HUVEC; assay type: cell-based, human; settings: 0.9 μM 24 h preincubation, 400 μM TBHP 24 h
Method: (§1) FIG. 17 is a graph illustrating that Compound 414 and 434 protect various cell types from oxidative stress-induced cell death. Human ARPE-19, HUVEC, and C6 cells were preincubated with compound 414 and 434 for 24 hours, and then exposed to 400 μM tert-butyl hydroperoxide (TBHP) to induce cell death for 24 hours.
(§2) Human ARPE-19, HUVEC, and C6 cells were preincubated with compound 414 and 434 for 24 hours, and then exposed to 400 μM tert-butyl hydroperoxide (TBHP) to induce cell death for 24 hours.

Human ARPE-19 cells [5] = assay: CellTox Green cytotoxicity assay; assay type: cell-based; settings: 0.9 μM 24 h
Method: FIG. 14 is a graph illustrating cytotoxicity level of the compounds in human retinal pigment epithelial (RPE) cells. Human ARPE-19 cells were preincubated with 0.9 μM of compound 414 or 434 for 24 hours and then exposed to 300 μM tert-butyl hydroperoxide (TBHP) for 24 hours. Cell toxicity was measured in human ARPE-19 cells after treatment with TBHP and compounds 414 and 434.
Human ARPE-19 or primary RPE were plated in 96-well plates for 24 hours in DMEM supplemented with FBS and antibiotics. ARPE-19 cells were incubated with compound (Chemical Diversity) or exposed to tert-butyl hydroperoxide (Sigma-Aldrich, St. Louis, MO) for 24 hours. Cell cytotoxicity was measured the following day by CellTox™ Green cytotoxicity assay (Promega, Madison, WI) using a BioTek FLx800™ fluorescence reader (BioTek, Winooski, VT).
After exposure to TBHP for 24 hours and treatment with compound 414 or 434 cytotoxicity levels were measured in human ARPE-19 cells (FIG. 14).

C6 cells = assay: TBHP-induced cell death in C6 cells; assay type: cell-based; settings: 0.9 μM 24 h preincubation, 400 μM TBHP 24 h
Method: as §1, §2

Row | Structure (SMILES) | cell morphology after challenge with TBHP (Human ARPE-19 cells [1]; 0.9 μM ciclopirox olamine and 300 μM TBHP) | cell viability after exposure to TBHP [2] | cell morphology after challenge with TBHP (Human ARPE-19 cells [1]; 0.6 μM compound and 300 μM TBHP) | cell viability on nitrite-modified ECM (Human ARPE-19 cells [3]) | cell viability after exposure to TBHP [4] | protection from oxidative stress-induced cell death (HUVEC) | cytotoxicity, treatment with compound alone (Human ARPE-19 cells [5]) | protection from oxidative stress-induced cell death (C6 cells)
1 | Cc1cc(C2CCCCC2)n(O)c(=O)c1 [ciclopirox olamine, 6-cyclohexyl-1-hydroxy-4-methyl-2(1H)-pyridone, ethanolamine salt, reference compound] | helps to preserve a normal morphology | significantly increases cell viability |  |  |  |  |  | 
2 | CCc1cccc(C)c1Nc1c(-c2cc(Br)ccc2O)nc2ncccn12 [compound 414] |  |  | helps to preserve a normal morphology | enhances cell viability | significantly increased cell viability | Protective effects | reduce cytotoxicity | Protective effects
3 | CCc1cccc(C)c1Nc1c(-c2cc(Br)ccc2O)nc2nc(C)cc(C)n12 [compound 434] |  |  |  | enhances cell viability | significantly increased cell viability | Protective effects | reduce cytotoxicity | Protective effects
